Test system: acid reflux
Assay: Example 13 case study, acid reflux
Format: in vivo, human
Details: patient history
Description: A person had suffered from acid reflux for two years. The reflux was severe enough to wake them once or twice every night, and they slept in an inclined bed. […] The patient drank a small glass of water with Alka Vita each night.

Row | Structure (SMILES) | relief of acid reflux by drugs tried before
1 | NC(N)=Nc1nc(CSCCC(N)=NS(N)(=O)=O)cs1 [Pepcid AC] | no relief
2 | COc1ccc2[nH]c([S+]([O-])Cc3ncc(C)c(OC)c3C)nc2c1 (stereo not shown) [Prilosec] | no relief
3 | COc1ccc2[nH]c([S@@+]([O-])Cc3ncc(C)c(OC)c3C)nc2c1 [Nexium] | no relief
4 | COc1cc(N)c(Cl)cc1C(=O)NC1CCN(CCCOc2ccc(F)cc2)CC1OC (stereo not shown) [Propulsid] | no relief

— US20060275505A1, “Method and composition for increasing the alkalinity of the body” (priority 2005, published 2006)
